The values that follow come from the supplement of paper PMC10307832.

Common to all, as to experiment: relative viability (nuclei count vs DMSO), 5 days (fraction); higher = more cells survive
Compound in the assay “Everolimus + Crizotinib”: CO[C@H]1C[C@@H]2CC[C@@H](C)[C@@](O)(O2)C(=O)C(=O)N2CCCC[C@H]2C(=O)O[C@H]([C@H](C)C[C@@H]2CC[C@@H](OCCO)[C@H](OC)C2)CC(=O)[C@H](C)/C=C(\C)[C@@H](O)[C@@H](OC)C(=O)[C@H](C)C[C@H](C)/C=C/C=C/C=C/1C [Everolimus] + C[C@@H](Oc1cc(-c2cnn(C3CCNCC3)c2)cnc1N)c1c(Cl)ccc(F)c1Cl [Crizotinib] (partner 1 µM)
In a few lines: (§1)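 Relative viability equals treated-well nuclei counts divided by vehicle-well nuclei counts. Counts came from 4× images of lung cancer cell lines grown in 1536-well plates for 5 days after pin-tool dosing on the day after seeding. Dosing used one drug alone or a fixed anchor-drug dose plus five library-drug doses (not always all listed) in √10 steps, and values are medians of duplicate plates.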

Compound in the assay “Everolimus + Palbociclib”: CO[C@H]1C[C@@H]2CC[C@@H](C)[C@@](O)(O2)C(=O)C(=O)N2CCCC[C@H]2C(=O)O[C@H]([C@H](C)C[C@@H]2CC[C@@H](OCCO)[C@H](OC)C2)CC(=O)[C@H](C)/C=C(\C)[C@@H](O)[C@@H](OC)C(=O)[C@H](C)C[C@H](C)/C=C/C=C/C=C/1C [Everolimus] + CC(=O)c1c(C)c2cnc(Nc3ccc(N4CCNCC4)cn3)nc2n(C2CCCC2)c1=O [Palbociclib] (partner 0.5 µM)
In short, it runs like this: as §1

Compound in the assay “Everolimus + AZD7762”: CO[C@H]1C[C@@H]2CC[C@@H](C)[C@@](O)(O2)C(=O)C(=O)N2CCCC[C@H]2C(=O)O[C@H]([C@H](C)C[C@@H]2CC[C@@H](OCCO)[C@H](OC)C2)CC(=O)[C@H](C)/C=C(\C)[C@@H](O)[C@@H](OC)C(=O)[C@H](C)C[C@H](C)/C=C/C=C/C=C/1C [Everolimus] + NC(=O)Nc1cc(-c2cccc(F)c2)sc1C(=O)N[C@H]1CCCNC1 [AZD7762] (partner 0.2 µM)
In short, it runs like this: as §1

Compound in the assay “Everolimus + Vorinostat”: CO[C@H]1C[C@@H]2CC[C@@H](C)[C@@](O)(O2)C(=O)C(=O)N2CCCC[C@H]2C(=O)O[C@H]([C@H](C)C[C@@H]2CC[C@@H](OCCO)[C@H](OC)C2)CC(=O)[C@H](C)/C=C(\C)[C@@H](O)[C@@H](OC)C(=O)[C@H](C)C[C@H](C)/C=C/C=C/C=C/1C [Everolimus] + O=C(CCCCCCC(=O)Nc1ccccc1)NO [Vorinostat] (partner 1 µM)
In a few lines: as §1

Regarding Calu-6, the relative viability in the assay with Everolimus + Crizotinib (first compound 0.01 µM) stood at 0.808; with Everolimus + Crizotinib (first compound 0.03162 µM) it was 0.692; in the assay with Everolimus + Crizotinib (first compound 0.1 µM) it was 0.642; with Everolimus + Crizotinib (first compound 0.3162 µM), 0.674; with Everolimus + Crizotinib (first compound 1 µM), 0.748.

As to ChaGo-K-1, the relative viability with Everolimus + Palbociclib (first compound 0.01 µM) stood at 0.798; with Everolimus + Palbociclib (first compound 0.03162 µM), 0.806; with Everolimus + Palbociclib (first compound 0.1 µM), 0.802; in the assay with Everolimus + Palbociclib (first compound 0.3162 µM), 0.768; with Everolimus + Palbociclib (first compound 1 µM), 0.914; in the assay with Everolimus + Crizotinib (first compound 0.01 µM), 1.04. The relative viability with Everolimus + Crizotinib (first compound 0.03162 µM) was found to be 1.2; with Everolimus + Crizotinib (first compound 0.1 µM), 1.07; with Everolimus + Crizotinib (first compound 0.3162 µM) it was 1.02; with Everolimus + Crizotinib (first compound 1 µM) it was 1.14; with Everolimus + AZD7762 (first compound 0.01 µM), 0.799; with Everolimus + AZD7762 (first compound 0.03162 µM), 0.917. The relative viability in the assay with Everolimus + AZD7762 (first compound 0.1 µM) was 0.743; with Everolimus + AZD7762 (first compound 0.3162 µM), 0.769; in the assay with Everolimus + AZD7762 (first compound 1 µM), 0.866; in the assay with Everolimus + Vorinostat (first compound 0.01 µM), 0.678; with Everolimus + Vorinostat (first compound 0.03162 µM) it was 0.688; with Everolimus + Vorinostat (first compound 0.1 µM) it was 0.62. Also, the values for the relative viability with Everolimus + Vorinostat (first compound 0.3162 µM) and with Everolimus + Vorinostat (first compound 1 µM) were 0.662 and 0.726, respectively.

For the cell line EBC-1, the relative viability with Everolimus + Crizotinib (first compound 0.01 µM) came out at 0.188; in the assay with Everolimus + Crizotinib (first compound 0.03162 µM), 0.17; with Everolimus + Crizotinib (first compound 0.1 µM), 0.152; in the assay with Everolimus + Crizotinib (first compound 0.3162 µM) it was 0.206; with Everolimus + Crizotinib (first compound 1 µM), 0.185.

Take EKVX: the relative viability with Everolimus + Palbociclib (first compound 0.03162 µM) came to 0.217; in the assay with Everolimus + Palbociclib (first compound 0.1 µM), 0.188; with Everolimus + Palbociclib (first compound 0.3162 µM), 0.2; with Everolimus + Palbociclib (first compound 1 µM), 0.237; with Everolimus + Crizotinib (first compound 0.01 µM) it was 0.718; with Everolimus + Crizotinib (first compound 0.03162 µM) it was 0.656. The relative viability stood at 0.684 in the assay with Everolimus + Crizotinib (first compound 0.1 µM); 0.721 in the assay with Everolimus + Crizotinib (first compound 0.3162 µM); 0.75 with Everolimus + Crizotinib (first compound 1 µM); 0.68 with Everolimus + AZD7762 (first compound 0.03162 µM); 0.41 with Everolimus + AZD7762 (first compound 0.1 µM); 0.415 in the assay with Everolimus + AZD7762 (first compound 0.3162 µM). Besides, the relative viability worked out at 0.432 with Everolimus + AZD7762 (first compound 1 µM); 0.72 with Everolimus + Vorinostat (first compound 0.01 µM); 0.567 in the assay with Everolimus + Vorinostat (first compound 0.03162 µM); 0.429 with Everolimus + Vorinostat (first compound 0.1 µM); 0.451 with Everolimus + Vorinostat (first compound 0.3162 µM); 0.425 with Everolimus + Vorinostat (first compound 1 µM).

For EMC-BAC-2, the relative viability stood at 0.414 with Everolimus + Palbociclib (first compound 0.01 µM); 0.376 in the assay with Everolimus + Palbociclib (first compound 0.03162 µM); 0.346 with Everolimus + Palbociclib (first compound 0.1 µM); 0.357 with Everolimus + Palbociclib (first compound 0.3162 µM); 0.324 with Everolimus + Palbociclib (first compound 1 µM); 0.562 with Everolimus + Crizotinib (first compound 0.01 µM). In addition, the relative viability came out at 0.546 with Everolimus + Crizotinib (first compound 0.03162 µM); 0.485 with Everolimus + Crizotinib (first compound 0.1 µM); 0.504 in the assay with Everolimus + Crizotinib (first compound 0.3162 µM); 0.535 with Everolimus + Crizotinib (first compound 1 µM); 0.846 with Everolimus + AZD7762 (first compound 0.01 µM); 0.761 with Everolimus + AZD7762 (first compound 0.03162 µM). For the same cell line, the relative viability with Everolimus + AZD7762 (first compound 0.1 µM) is 0.645; with Everolimus + AZD7762 (first compound 0.3162 µM), 0.653; with Everolimus + AZD7762 (first compound 1 µM), 0.692; with Everolimus + Vorinostat (first compound 0.01 µM), 0.278; with Everolimus + Vorinostat (first compound 0.03162 µM), 0.267; with Everolimus + Vorinostat (first compound 0.1 µM) it was 0.299. In addition, in the assay with Everolimus + Vorinostat (first compound 1 µM), the relative viability is 0.292.

Consider EPLC-272H, for which the relative viability with Everolimus + Palbociclib (first compound 0.01 µM) worked out at 0.307; in the assay with Everolimus + Palbociclib (first compound 0.03162 µM) it was 0.323; in the assay with Everolimus + Palbociclib (first compound 0.1 µM) it was 0.284; with Everolimus + Palbociclib (first compound 0.3162 µM), 0.286; with Everolimus + Palbociclib (first compound 1 µM) it was 0.259; with Everolimus + Crizotinib (first compound 0.01 µM), 0.68. In addition, the relative viability turned out to be 0.573 with Everolimus + Crizotinib (first compound 0.03162 µM); 0.542 with Everolimus + Crizotinib (first compound 0.1 µM); 0.512 with Everolimus + Crizotinib (first compound 0.3162 µM); 0.601 in the assay with Everolimus + Crizotinib (first compound 1 µM); 0.133 with Everolimus + AZD7762 (first compound 0.01 µM); 0.229 in the assay with Everolimus + AZD7762 (first compound 0.03162 µM). Further, the relative viability amounted to 0.172 with Everolimus + AZD7762 (first compound 0.1 µM); 0.172 with Everolimus + AZD7762 (first compound 0.3162 µM); 0.222 in the assay with Everolimus + AZD7762 (first compound 1 µM); 0.512 with Everolimus + Vorinostat (first compound 0.01 µM); 0.306 with Everolimus + Vorinostat (first compound 0.03162 µM); 0.289 in the assay with Everolimus + Vorinostat (first compound 0.1 µM). The values for the relative viability with Everolimus + Vorinostat (first compound 0.3162 µM) and with Everolimus + Vorinostat (first compound 1 µM) were 0.336 and 0.305, respectively.

In the case of IA-LM, the relative viability in the assay with Everolimus + Crizotinib (first compound 0.01 µM) is 0.418; with Everolimus + Crizotinib (first compound 0.03162 µM), 0.424; with Everolimus + Crizotinib (first compound 0.1 µM), 0.256; in the assay with Everolimus + Crizotinib (first compound 0.3162 µM), 0.478; in the assay with Everolimus + Crizotinib (first compound 1 µM) it was 0.441; with Everolimus + Vorinostat (first compound 0.01 µM), 0.815. For the same cell line, the relative viability with Everolimus + Vorinostat (first compound 0.03162 µM) is 0.83; in the assay with Everolimus + Vorinostat (first compound 0.1 µM), 0.425; in the assay with Everolimus + Vorinostat (first compound 0.3162 µM), 0.342; with Everolimus + Vorinostat (first compound 1 µM), 0.352.

On to NCI-H520, for which the relative viability with Everolimus + Palbociclib (first compound 0.01 µM) stood at 0.155; with Everolimus + Palbociclib (first compound 0.03162 µM), 0.182; with Everolimus + Palbociclib (first compound 0.1 µM), 0.194; with Everolimus + Palbociclib (first compound 0.3162 µM), 0.14; in the assay with Everolimus + Palbociclib (first compound 1 µM), 0.194; in the assay with Everolimus + Crizotinib (first compound 0.01 µM), 0.478. Moreover, the relative viability with Everolimus + Crizotinib (first compound 0.03162 µM) is 0.398; in the assay with Everolimus + Crizotinib (first compound 0.1 µM), 0.426; in the assay with Everolimus + Crizotinib (first compound 0.3162 µM), 0.354; with Everolimus + Crizotinib (first compound 1 µM), 0.353; with Everolimus + Vorinostat (first compound 0.01 µM), 0.455; with Everolimus + Vorinostat (first compound 0.03162 µM) it was 0.373. The relative viability in the assay with Everolimus + Vorinostat (first compound 0.1 µM) is 0.439; in the assay with Everolimus + Vorinostat (first compound 0.3162 µM), 0.394; in the assay with Everolimus + Vorinostat (first compound 1 µM) it was 0.387.

As for NCI-H522, the relative viability with Everolimus + Palbociclib (first compound 0.01 µM) is 0.793; with Everolimus + Palbociclib (first compound 0.03162 µM), 0.701; with Everolimus + Palbociclib (first compound 0.1 µM), 0.62; with Everolimus + Palbociclib (first compound 0.3162 µM), 0.603; in the assay with Everolimus + Palbociclib (first compound 1 µM), 0.597; with Everolimus + AZD7762 (first compound 0.01 µM) it was 0.622. Also, the relative viability with Everolimus + AZD7762 (first compound 0.03162 µM) was found to be 0.64; with Everolimus + AZD7762 (first compound 0.1 µM), 0.579; with Everolimus + AZD7762 (first compound 0.3162 µM), 0.651; with Everolimus + AZD7762 (first compound 1 µM), 0.686; with Everolimus + Vorinostat (first compound 0.01 µM), 0.788; in the assay with Everolimus + Vorinostat (first compound 0.03162 µM), 0.784. For the same cell line, the relative viability is 0.589 with Everolimus + Vorinostat (first compound 0.1 µM), 0.726 with Everolimus + Vorinostat (first compound 0.3162 µM) and 0.731 with Everolimus + Vorinostat (first compound 1 µM).
